“And” between values parts separate entries of the source, which are not always exact repeats. Equal entries are not always repeated.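 96-well plates; 48 h exposure; 5 concentrations. Endpoints by linear interpolation between flanking doses. Not reached: highest tested concentration assigned. Here, GI50 denotes the concentration required for 50% inhibition of growth. At the TGI there is no net growth.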
What was measured:
Assay in all cases: growth of human tumour cells (NCI), 48 h
NCI-H226 lung = tested on: NCI-H226 lung
OVCAR-8 ovarian = tested on: OVCAR-8 ovarian
SR leukemia = tested on: SR leukemia
A498 renal = tested on: A498 renal
SW-620 colon = tested on: SW-620 colon
SF-268 CNS = tested on: SF-268 CNS
HOP-92 NSCLC = tested on: HOP-92 NSCLC
LOX IMVI melanoma = tested on: LOX IMVI melanoma
DU-145 prostate = tested on: DU-145 prostate
BT-549 breast = tested on: BT-549 breast

SMILES | TGI (NCI-H226 lung) | TGI (OVCAR-8 ovarian) | TGI (SR leukemia) [µM] | TGI (A498 renal) | TGI (SW-620 colon) | TGI (SF-268 CNS) | TGI (HOP-92 NSCLC) | TGI (LOX IMVI melanoma) | TGI (DU-145 prostate) | TGI (BT-549 breast) | GI50 (OVCAR-8 ovarian) | GI50 (A498 renal) | GI50 (SW-620 colon) | GI50 (SF-268 CNS) | GI50 (HOP-92 NSCLC) | GI50 (LOX IMVI melanoma) | GI50 (NCI-H226 lung) | GI50 (SR leukemia) [µM] | GI50 (DU-145 prostate) | GI50 (BT-549 breast)
COc1ccc(C2[C@@H](Cl)C(=O)N2c2ccc(OC)cc2)cc1 (some centres not stated) | > 100 µM | > 100 µM | > 100 | > 100 µM | > 100 µM | > 100 µM | 39.5 µM | – | – | – | – | – | – | – | – | – | – | – | – | –
O=c1[nH]c(C2CCCCC2)nc2ccc(Cl)cc12 | > 100 µM | > 100 µM | > 100 | – | > 100 µM | > 100 µM | > 100 µM | – | – | – | – | – | – | – | – | – | – | – | – | –
OCC1OC(NO)C(O)C(O)C1O (configuration not stated) | > 100 µM | > 100 µM | > 100 | > 100 µM | > 100 µM | > 100 µM | > 100 µM | > 100 µM | – | – | – | – | – | – | – | – | – | – | – | –
O=S(=O)(O)c1ccc([Se][Se]c2ccc(S(=O)(=O)O)cc2)cc1 | > 100 µM | > 100 µM | 96.6 | > 100 µM | > 100 µM | > 100 µM | > 100 µM | > 100 µM | – | – | – | – | – | – | – | – | – | – | – | –
COc1ccc(NC(=O)CC2SC(=Nc3ccc(Cl)cc3C)NC2=O)c([N+](=O)[O-])c1 (configuration not stated) | > 100 µM | > 100 µM | > 100 | > 100 µM | > 100 µM | > 100 µM | > 100 µM | > 100 µM | – | – | – | – | – | – | – | – | – | – | – | –
COc1cc(OC)c(OC)cc1/C=C/c1ccc2ccccc2n1 | – | > 10 µM | > 10 | – | > 10 µM | > 10 µM | > 10 µM | > 10 µM | > 10 µM | > 10 µM | – | – | – | – | – | – | – | – | – | –
CCn1c(C)nc([N+](=O)[O-])c1Sc1ncc[nH]1 | > 100 µM | > 100 µM | > 100 | > 100 µM | > 100 µM | > 100 µM | > 100 µM | 42.2 µM | – | – | – | – | – | – | – | – | – | – | – | –
CCCCCCCC(=O)[O-].N.N.N.N.N.[Co+3].[O-][Cl+3]([O-])([O-])[O-] | – | > 100 µM | – | > 100 µM | > 100 µM | > 100 µM | > 100 µM | > 100 µM | – | – | > 100 µM | > 100 µM | > 100 µM | > 100 µM | > 100 µM | > 100 µM | – | – | – | –
O=S1c2ccccc2N=C(c2cccs2)CC1c1ccccc1O (configuration not stated) | > 100 µM | > 100 µM | – | 99.8 µM | > 100 µM | > 100 µM | – | > 100 µM | – | – | – | – | – | – | – | – | – | – | – | –
CC(=O)OCc1cc[c]([Hg][Cl])o1 | 45.5 µM | 57.7 µM | 12.3 | – | 3.82 µM | 21.8 µM | 6.36 µM | 4.96 µM | 26.4 µM | 19.3 µM | 11.4 µM | – | 1.6 µM | 8.78 µM | 2.51 µM | 1.96 µM | 19.4 µM | 0.619 | 13.6 µM | 6.43 µM
CS(=O)(=O)Nc1cc(-c2ccc3ncnc(Nc4ccc(OCc5ccccn5)c(Cl)c4)c3c2)cnc1Cl | 11 µM | 26.8 µM | 2.77 | 0.641 µM | 10.5 µM | > 100 µM | – | 1.92 µM | > 100 µM | 1.23 µM | 1.36 µM | 0.155 µM | 0.448 µM | 0.429 µM | – | 0.268 µM | 0.549 µM | 0.374 | 0.52 µM | 0.14 µM
c1ccc2cc(Cn3c(-c4cccc5ccccc45)[n+](Cc4ccc5ccccc5c4)c4c5ccccc5c5ccccc5c43)ccc2c1 | – | 1.92 µM | – | 0.779 µM | – | – | – | – | 1.68 µM | – | 0.332 µM | 0.193 µM | – | – | – | – | – | – | 0.413 µM | –
COc1ccc2c(c1)C(=O)CC(C(N)=O)C2 (configuration not stated) | > 100 µM | > 100 µM | > 100 | – | > 100 µM | > 100 µM | > 100 µM | > 100 µM | > 100 µM | > 100 µM | – | – | – | – | – | – | – | – | – | –
Oc1ccccc1-c1cnnc(-c2ccccc2O)c1 | 73.9 µM | 57.4 µM | 75.1 | – | > 100 µM | > 100 µM | 49.9 µM | 41 µM | – | – | – | – | – | – | – | – | – | – | – | –
Cc1ccccc1N=C(c1ccccc1)C1C(=O)c2ccccc2C1=O | 57.5 µM | > 100 µM | – | > 100 µM | > 100 µM | 40.2 µM | 53.8 µM | 71.6 µM | 69.6 µM | – | 15 µM | 24.4 µM | 25.3 µM | 13.3 µM | 14.4 µM | 21.7 µM | 19.4 µM | – | 22.4 µM | –
O=S1(=O)CC#CC[C@@H](CO)[C@@H](CO)CC#CC1 | – | > 100 µM | > 100 | – | > 100 µM | – | 90.3 µM | > 100 µM | – | – | – | – | – | – | – | – | – | – | – | –
CNC(=O)c1cc(Oc2ccc(NC(=O)Nc3ccc(Cl)c(C(F)(F)F)c3)cc2)ccn1 | 9.38 µM and 7.14 µM and 7.27 µM | > 10 µM and 9.06 µM and 20.2 µM | – | 9.48 µM and 6.38 µM and 6.52 µM | > 10 µM and 12 µM and 9.35 µM | > 10 µM and 10.8 µM and 7.88 µM | 5.62 µM and 5.12 µM and 6.38 µM | > 10 µM and 3.3 µM and 4.31 µM | > 10 µM and 9.33 µM and 10.7 µM | > 10 µM and 5.23 µM and 8.69 µM | 3 µM and 2.91 µM and 3.03 µM | 3.1 µM and 2.27 µM and 2.15 µM | 4.26 µM and 3.05 µM and 2.87 µM | 4.15 µM and 2.73 µM and 2.63 µM | 1.65 µM and 1.43 µM and 1.75 µM | 2.52 µM and 1.5 µM and 1.67 µM | 1.14 µM and 2.29 µM and 2 µM | – | 4.55 µM and 3.04 µM and 3.11 µM | 3.01 µM and 2.29 µM and 3.16 µM
CCCCCCCN(CCCCCCC)C(=N)c1ccc(OC)c2ccccc12 | – | 3.04 µM | – | 1.8 µM | 2.24 µM | 3.16 µM | 2.02 µM | – | 2.76 µM | – | 1.41 µM | 0.419 µM | 0.825 µM | 1.49 µM | 0.603 µM | – | – | – | 1.38 µM | –
COC1C[C@H](O[C@@H]2C[C@H](O[C@@H]3C[C@H](O[C@@H]4C(=O)c5c(cc6cc(O[C@H]7C[C@@H](O[C@H]8C[C@@H](O)[C@H](O)C(C)O8)[C@H](O)C(C)O7)c(C)c(O)c6c5O)C[C@H]4C(OC)C(=O)[C@@H](O)[C@@H](C)O)OC(C)[C@H]3O)OC(C)[C@@H]2O)OC(C)[C@@H]1O (some centres not stated) | – | > 32.5 µM | > 32.5 | 0.108 µM | > 32.5 µM | > 32.5 µM | 0.25 µM | 0.168 µM | > 32.5 µM | 0.565 µM | 0.108 µM | 0.0395 µM | 0.127 µM | 0.0864 µM | 0.0551 µM | 0.0545 µM | – | 0.0406 | 0.125 µM | 0.0785 µM
COC(=O)/C(=C1\OC(=O)C(c2ccc(Cl)cc2)=C1O)c1ccc(Cl)cc1 | 58.5 µM | > 100 µM | 80.9 | 47.8 µM | > 100 µM | > 100 µM | 50.4 µM | 64.4 µM | – | – | – | – | – | – | – | – | – | – | – | –
O/N=C1/C(=C/c2ccc(Br)cc2)CCCC1C(NO)c1ccc(Br)cc1 (configuration not stated) | – | 31.5 µM | – | 23 µM | 38.6 µM | 34.1 µM | 26.5 µM | 35.5 µM | – | – | – | – | – | – | – | – | – | – | – | –

Reference: PubChem BioAssay (NCI)
